# Experimental data published in US20100239669A1, “Combinations of statins and anti-obesity agent” (Scidose LLC, priority 2007, published 2010).
# Test: Patient on atorvastatin with orlistat added (co-therapy)
# Assay type: in vivo, human
# Procedure: A patient on atorvastatin 80 mg once daily is found to still be in need of reducing weight, triglyceride, and cholesterol levels further. […] The patient is maintained on this regimen for 2 months and thereafter the atorvastatin dosage is reduced to 60 mg once daily at which the reductions previously obtained are maintained. The patient is then switched to a fixed combination dosage form of 120 mg orlistat and 60 mg atorvastatin once daily. A patient on atorvastatin 10 mg once daily is found to be in need of weight reduction and triglyceride reduction, although cholesterol levels are adequately maintained by the atorvastatin. Orlistat 120 mg once daily is added to the regimen and each of weight, triglycerides and cholesterol drop. […] The patient is then changed to a fixed combination of 120 mg orlistat and 5 mg of atorvastatin.
smiles,measurement,setting,value
"CCCCCCCCCCC[C@@H](C[C@@H]1OC(=O)[C@H]1CCCCCC)OC(=O)[C@H](CC(C)C)NC=O [orlistat, N-formyl-L-leucine ester of (3S,4S)-3-hexyl-4-[(2S)-2-hydroxytridecyl]-2-oxetanone]","weight, serum triglycerides, and cholesterol",Example 1: 120 mg once daily orlistat added to atorvastatin 80 mg once daily,begins to lower
same,"reductions previously obtained (weight, triglycerides, cholesterol)","Example 1: after 2 months atorvastatin reduced to 60 mg once daily, orlistat 120 mg once daily",maintained
same,"lowered weight, triglycerides, and cholesterol levels","Example 2: after 6 weeks, 120 mg orlistat once daily and 5 mg atorvastatin once daily",surprisingly maintains
same,"weight, triglycerides and cholesterol",Example 2: orlistat 120 mg once daily added to atorvastatin 10 mg once daily,drop
